Reference: patent publication US9981961B2, “Deoxycytidine kinase inhibitors” (The Regents of the University of California, priority 2013, dated 2018)

Tests used:
[1] = Plasma thymidine level after dT injection; format: in vivo, NSG mice
Experimental: NOD SCID gamma (NSG) mice were injected with 2 g/kg dT intraperitoneally; 75 μL of whole blood was obtained at 0, 2, 4, and 8 hr through retro-orbital sinus bleed using hematocrit capillary tubes. Whole blood was immediately centrifuged at 3000× g for 5 min to isolate serum; 30 μL of serum was mixed with 1 mL methanol:acetonitrile (1:9), vortexed for 2 min, centrifuged at 14,000× g for 4 min at 4° C. Extraction was repeated and the pooled supernatant was dried under vacuum centrifugation. The residue was dissolved in 100 μL water, filtered and eluted through a Waters microBondapak C18 column under a gradient mobile phase from 2% methanol to 50% methanol over ten minutes at a flow rate of 1.5 mL/min.

[2] = system: NSP-produced dCTP incorporated into DNA of CEM cells; assay: Stable isotope labeling of dCTP biosynthesis in CEM cells; format: cell-based, human; settings: 12 hr labeling, dT treatment
[3] = system: dCTP and dTTP pools of CEM cells; assay: Intracellular dNTP pool measurement in CEM cells; format: cell-based, human; settings: 24 hr
[4] = biological target: dCK activity in CCRF-CEM tumor xenografts (Homo sapiens, UniProt P27707)
Experimental: Four hours post-treatment mice were injected intravenously with 70 μCi of ^18F-L-FAC. For all mPET/CT studies, a 1 h interval was allowed between probe administration and mPET/CT scanning (Inveon, Siemens Medical Solutions USA Inc.; microCAT, Imtek Inc.). Static mPET images were acquired for 600 s. Images were analyzed using OsiriX Imaging Software Version 3.8.

[5] = system: CEM leukemic cells in bone marrow; assay: Systemic T-ALL model (CEM cells injected intravenously); format: in vivo, NSG mice; settings: dT 2 g/kg every 12 hr
Experimental: Ten μL of blood was collected via tail vein nick and mixed with 2 μL 50 mM EDTA. One μL of blood was mixed with 99 μL PBS and transferred to a 96 well OptiPlate (Perkin Elmer). One hundred μL of 20 μM coelenterazine substrate was mixed and luciferase activity was measured using a plate luminescence microplate reader SpectraMax L (Molecular Devices). Systemic tumor models were established by intravenous injection of 10^6 CEM dCK^wt-sGluc-GFP or dCK^low-sGluc-GFP in 100 μL RPMI.

[6] = system: NSP-produced dCTP incorporated into tumor DNA; assay: [U-13C/15N]-dC incorporation into DNA of CEM tumor xenografts; format: in vivo, NSG mice; settings: dCK^wt CEM tumors, dT 2 g/kg single dose, 4 hr
Experimental: For the in vivo studies, tumor-bearing mice were injected with 200 μL, of 2.5 mM [U-^13C/^15N]-deoxycytidine 30 min prior to sacrifice. Tumors were harvested, mechanically digested into single cells, and cell counts were obtained. DNA extraction was carried out as described above.
DNA hydrolysis samples were diluted 1/1 with solvent A (water/formic acid, 100/0.2, v/v) and analyzed using a modified version of a previously reported method (Cohen et al., 2009) in which aliquots of the solution (10 μL) were injected onto a porous graphitic carbon column (Thermo Hypercarb, 100×2.1 mm, 3 micron particle size) equilibrated in solvent A and eluted (300 μL/min) with an increasing concentration of solvent B (acetonitrile/min/% B; 0/0, 6/60, 6.1/100, 9/100, 9.1/0, 10/0). […] After verification of retention times using authentic standards, the peak areas of the MH^+→fragment ion transitions for the dC isotopomers (M0, 228.1→112.1; M1, 229.1→112.1; M2, 230.1→112.1; M3, 231.1→112.1; M4, 232.1→112.1; M5, 233.1→112.1; M6, 234.1→113.1; M7, 235.1→114.1; M8, […]; […]; M11, 239.1→118.1; and M12, 240.1→119.1) were recorded with instrument manufacturer-supplied software (Agilent MassHunter), and normalized to cell number. The dC isotopomers of M3 through M8 for the DNP and M11 through M12 for NSP were detected and used for data analysis.

Sequence of dCK activity in CCRF-CEM tumor xenografts (P27707 whole entry): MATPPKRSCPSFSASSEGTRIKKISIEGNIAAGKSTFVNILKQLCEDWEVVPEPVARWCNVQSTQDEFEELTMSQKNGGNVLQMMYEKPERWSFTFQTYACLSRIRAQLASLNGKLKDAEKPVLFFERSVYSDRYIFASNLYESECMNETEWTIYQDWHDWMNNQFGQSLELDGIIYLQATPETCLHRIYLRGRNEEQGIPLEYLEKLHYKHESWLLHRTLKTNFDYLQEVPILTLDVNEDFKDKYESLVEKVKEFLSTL

With `Cc1cn([C@H]2C[C@H](O)[C@@H](CO)O2)c(=O)[nH]c1=O` [dT, thymidine] the concentration at 8 hr ([1]; NOD SCID gamma (NSG), mouse, plasma, ip, at 8 hr after single injection 2 g/kg intraperitoneally, read-out: plasma dT, declined to baseline values) was about 10 µM, the “plasma dT peak” value ([1]; two hours after single injection 2 g/kg intraperitoneally) was 1.5 mM and the “fold increase over baseline of utilization of NSP-produced dCTP for DNA synthesis” value [2] was “more than 3 fold”. The “fold increase of dTTP” value ([3]; 50 μM dT) was about 20 fold, the “fold reduction of dCTP” value ([3]; 50 μM dT) was about 5 fold and the “decrease of dCTP pool” value ([3]; DI-39 1 μM, dT 50 μM, or both) was about 30%. The “increase of 18F-L-FAC accumulation” value [4] was about 20%, the “fold reduction in percentage of leukemic cells in bone marrow relative to vehicle and DI-39 treated groups” value [5] was about 7 fold and the “fold increase of labeled dCTP incorporation into DNA” value [6] was about 3 fold.
